US20100056524A1, “Compound” (priority 2008, published 2010)
Where a name gives a salt, the structure may show the parent alone.

The molecules below were run against T1, TBK1 (Homo sapiens, UniProt Q9UHD2) (assay: TBK1 protein kinase assay ([γ-33P]ATP, P81 filterplates)). Settings: 50 μM ATP; read-out: Potency (TBK1 IC50 potency score).
T1 construct: All protein kinases were of human origin and encoded full length proteins, unless indicated otherwise; His6; made in house; host or cells: insect Sf21 cells
T1 sequence (Q9UHD2 1-729): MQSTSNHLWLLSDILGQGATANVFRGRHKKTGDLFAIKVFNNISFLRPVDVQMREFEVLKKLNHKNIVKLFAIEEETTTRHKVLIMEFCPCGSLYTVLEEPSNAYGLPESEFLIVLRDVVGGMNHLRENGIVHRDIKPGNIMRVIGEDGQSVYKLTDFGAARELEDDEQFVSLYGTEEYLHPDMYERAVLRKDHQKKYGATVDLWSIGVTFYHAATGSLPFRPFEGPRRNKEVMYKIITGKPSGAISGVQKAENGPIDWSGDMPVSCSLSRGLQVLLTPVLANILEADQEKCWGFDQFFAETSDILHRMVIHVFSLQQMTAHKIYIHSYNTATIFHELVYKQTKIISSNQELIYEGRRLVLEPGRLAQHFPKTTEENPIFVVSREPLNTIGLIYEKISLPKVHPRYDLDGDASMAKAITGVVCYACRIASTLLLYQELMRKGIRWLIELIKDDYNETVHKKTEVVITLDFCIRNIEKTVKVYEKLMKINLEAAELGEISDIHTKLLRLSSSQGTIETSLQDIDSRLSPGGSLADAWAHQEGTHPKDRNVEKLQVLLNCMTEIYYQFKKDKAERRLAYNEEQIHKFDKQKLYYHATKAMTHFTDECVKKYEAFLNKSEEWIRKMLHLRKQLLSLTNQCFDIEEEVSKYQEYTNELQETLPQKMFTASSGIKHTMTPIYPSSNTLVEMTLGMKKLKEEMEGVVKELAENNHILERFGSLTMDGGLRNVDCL
Assay type: biochemical
Summary of the method: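 Human TBK1 assayed for 30 min with peptide substrate (300 μM), 50 μM [γ-33P]ATP and 10 mM magnesium acetate in 50 mM Tris/HCl pH 7.5, 0.1 mM EGTA, 0.1% 2-mercaptoethanol. Stopped with orthophosphoric acid and counted on P81 filters. IC50 from 10 compound concentrations.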

| SMILES | IC50 |
| --- | --- |
| CN(C)CCN(C)C(=O)c1cccc(Nc2ncc(C3CC3)c(NCCCNC(=O)C3CCC3)n2)c1 [Example 76, 3-{4-[3-(Cyclobutanecarbonyl-amino)-propylamino]-5-cyclopropyl-pyrimidin-2-ylamino}-N-(2-dimethylamino-ethyl)-N-methyl-benzamide] | < 100 nM |
| CN1CCN(C(=O)c2cccc(Nc3ncc(C4CC4)c(NCCCNC(=O)C4CCC4)n3)c2)CC1 [Example 77, Cyclobutanecarboxylic acid (3-{5-cyclopropyl-2-[3-(4-methyl-piperazine-1-carbonyl)-phenylamino]-pyrimidin-4-ylamino}-propyl)-amide] | < 100 nM |
| CN1CCC(CNC(=O)c2cccc(Nc3ncc(C4CC4)c(NCCCNC(=O)C4CCC4)n3)c2)CC1 [Example 78, 3-{4-[3-(Cyclobutanecarbonyl-amino)-propylamino]-5-cyclopropyl-pyrimidin-2-ylamino}-N-(1-methyl-piperidin-4-ylmethyl)-benzamide] | < 100 nM |
| CN(CCN1CCOCC1)C(=O)c1cccc(Nc2ncc(C3CC3)c(NCCCNC(=O)C3CCC3)n2)c1 [Example 80, 3-{4-[3-(Cyclobutanecarbonyl-amino)-propylamino]-5-cyclopropyl-pyrimidin-2-ylamino}-N-methyl-N-(2-morpholin-4-yl-ethyl)-benzamide] | < 100 nM |
| CN(C)C1CCN(C(=O)c2cccc(Nc3ncc(C4CC4)c(NCCCNC(=O)C4CCC4)n3)c2)CC1 [Example 81, Cyclobutanecarboxylic acid (3-{5-cyclopropyl-2-[3-(4-dimethylamino-piperidine-1-carbonyl)-phenylamino]-pyrimidin-4-ylamino}-propyl)-amide] | < 100 nM |
| CN1CCC(NC(=O)c2cccc(Nc3ncc(C4CC4)c(NCCCNC(=O)C4CCC4)n3)c2)CC1 [Example 82, 3-{4-[3-(Cyclobutanecarbonyl-amino)-propylamino]-5-cyclopropyl-pyrimidin-2-ylamino}-N-(1-methyl-piperidin-4-yl)-benzamide] | 100 to 1000 nM |
| O=C(NCCCNc1nc(Nc2cccc(Cn3cncn3)c2)ncc1C1CC1)C1CCC1 [Example 83, Cyclobutanecarboxylic acid {3-[5-cyclopropyl-2-(3-1,2,4-triazol-1-ylmethyl-phenylamino)-pyrimidin-4-ylamino]-propyl}-amide] | < 100 nM |
| O=C(NCCCNc1nc(Nc2cccc(-n3cncn3)c2)ncc1C1CC1)C1CCC1 [Example 86, Cyclobutanecarboxylic acid (3-{5-cyclopropyl-2-[3-(2H-1,2,4-triazol-1-yl)-phenylamino]-pyrimidin-4-ylamino}-propyl)-amide] | < 100 nM |
| O=C(NCCCNc1nc(Nc2cccc(-c3cnco3)c2)ncc1C1CC1)C1CCC1 [Example 87, Cyclobutanecarboxylic acid {3-[5-cyclopropyl-2-(3-oxazol-5-yl-phenylamino)-pyrimidin-4-ylamino]-propyl}-amide] | < 100 nM |
| O=C1NCc2ccc(Nc3ncc(C4CC4)c(NCCCNC(=O)C4CCC4)n3)cc21 [Example 88, Cyclobutanecarboxylic acid {3-[5-cyclopropyl-2-(3-oxo-2,3-dihydro-1H-isoindol-5-ylamino)-pyrimidin-4-ylamino]-propyl}-amide hydrochloride salt] | < 100 nM |
| O=C(NCc1ncc[nH]1)c1cccc(Nc2ncc(C3CC3)c(NCCCNC(=O)C3CCC3)n2)c1 [Example 89, 3-{4-[3-(Cyclobutanecarbonyl-amino)-propylamino]-5-cyclopropyl-pyrimidin-2-ylamino}-N-(1H-imidazol-2-ylmethyl)-benzamide. Hydrochloride salt] | < 100 nM |
| CN1CCN(c2cccc(Nc3ncc(C4CC4)c(NCCCNC(=O)C4CCC4)n3)c2)CC1 [Example 91, Cyclobutanecarboxylic acid (3-{5-cyclopropyl-2-[3-(4-methyl-piperazin-1-yl)-phenylamino]-pyrimidin-4-ylamino}-propyl)-amide. Trifluoroacetic acid salt] | < 100 nM |
| O=C(NCCCNc1nc(Nc2ccc(N3CCOCC3)nc2)ncc1C1CC1)C1CCC1 [Example 93, Cyclobutanecarboxylic acid {3-[5-cyclopropyl-2-(6-morpholin-4-yl-pyridin-3-ylamino)-pyrimidin-4-ylamino]-propyl}-amide] | < 100 nM |
| O=C(NCCCNc1nc(Nc2cccc(-c3nnn[nH]3)c2)ncc1C1CC1)C1CCC1 [Example 94, Cyclobutanecarboxylic acid (3-{5-cyclopropyl-2-[3-(2H-tetrazol-5-yl)-phenylamino]-pyrimidin-4-ylamino}-propyl)-amide] | 100 to 1000 nM |
| O=C(O)Cc1cccc(Nc2ncc(C3CC3)c(NCCCNC(=O)C3CCC3)n2)c1 [Example 95, (3-{4-[3-(Cyclobutanecarbonyl-amino)-propylamino]-5-cyclopropyl-pyrimidin-2-ylamino}-phenyl)-acetic acid. Hydrochloride] | < 100 nM |
| O=C(NCCCNc1nc(Nc2ccc3nc[nH]c3c2)ncc1C1CC1)C1CCC1 [Example 96, Cyclobutanecarboxylic acid {3-[2-(3H-benzimidazol-5-ylamino)-5-cyclopropyl-pyrimidin-4-ylamino]-propyl}-amide] | < 100 nM |
| O=C(NCCCNc1nc(Nc2ccc(Br)nc2)ncc1C1CC1)C1CCC1 [Example 97, Cyclobutanecarboxylic acid {3-[2-(6-bromo-pyridin-3-ylamino)-5-cyclopropyl-pyrimidin-4-ylamino]-propyl}-amide] | < 100 nM |
| CN(C)CCN(C)c1ccc(Nc2ncc(C3CC3)c(NCCCNC(=O)C3CCC3)n2)cn1 [Example 100, Cyclobutanecarboxylic acid [3-(5-cyclopropyl-2-{6-[(2-dimethylamino-ethyl)-methyl-amino]-pyridin-3-ylamino}-pyrimidin-4-ylamino)-propyl]-amide] | < 100 nM |
| CN(CCN1CCOCC1)c1ccc(Nc2ncc(C3CC3)c(NCCCNC(=O)C3CCC3)n2)cn1 [Example 102, Cyclobutanecarboxylic acid [3-(5-cyclopropyl-2-{6-[methyl-(2-morpholin-4-yl-ethyl)-amino]-pyridin-3-ylamino}-pyrimidin-4-ylamino)-propyl]-amide] | < 100 nM |

Further lines, results first:

| IC50 | SMILES |
| --- | --- |
| < 100 nM | COCCNC(=O)c1cccc(Nc2ncc(C3CC3)c(NCCCNC(=O)C3CCC3)n2)c1 [Example 73, 3-{4-[3-(Cyclobutanecarbonyl-amino)-propylamino]-5-cyclopropyl-pyrimidin-2-ylamino}-N-(2-methoxy-ethyl)-benzamide] |
| < 100 nM | O=C(NCCc1c[nH]cn1)c1cccc(Nc2ncc(C3CC3)c(NCCCNC(=O)C3CCC3)n2)c1 [Example 74, 3-{4-[3-(Cyclobutanecarbonyl-amino)-propylamino]-5-cyclopropyl-pyrimidin-2-ylamino}-N-[2-(1H-imidazol-4-yl)-ethyl]-benzamide] |
| < 100 nM | O=C(NCCCNc1nc(Nc2cccc(C(=O)N3CCOCC3)c2)ncc1C1CC1)C1CCC1 [Example 75, Cyclobutanecarboxylic acid (3-{5-cyclopropyl-2-[3-(morpholine-4-carbonyl)-phenylamino]-pyrimidin-4-ylamino}-propyl)-amide] |
| < 100 nM | CN(C)CCCN(C)C(=O)c1cccc(Nc2ncc(C3CC3)c(NCCCNC(=O)C3CCC3)n2)c1 [Example 79, 3-{4-[3-(Cyclobutanecarbonyl-amino)-propylamino]-5-cyclopropyl-pyrimidin-2-ylamino}-N-(3-dimethylamino-propyl)-N-methyl-benzamide] |
| < 100 nM | Cn1ccc(-c2cccc(Nc3ncc(C4CC4)c(NCCCNC(=O)C4CCC4)n3)c2)n1 [Example 84, Cyclobutanecarboxylic acid (3-{5-cyclopropyl-2-[3-(1-methyl-1H-pyrazol-3-yl)-phenylamino]-pyrimidin-4-ylamino}-propyl)-amide] |
| < 100 nM | O=C(NCCCNc1nc(Nc2ccc(F)c(F)c2)ncc1C1CC1)C1CCC1 [Example 85, Cyclobutanecarboxylic acid {3-[5-cyclopropyl-2-(3,4-difluoro-phenylamino)-pyrimidin-4-ylamino]-propyl}-amide] |
| < 100 nM | O=C1NCc2cc(Nc3ncc(C4CC4)c(NCCCNC(=O)C4CCC4)n3)ccc21 [Example 90, Cyclobutanecarboxylic acid {3-[5-cyclopropyl-2-(1-oxo-2,3-dihydro-1H-isoindol-5-ylamino)-pyrimidin-4-ylamino]-propyl}-amide. Trifluoroacetic acid salt] |
| < 100 nM | O=C(NCCCNc1nc(Nc2ccc(I)nc2)ncc1C1CC1)C1CCC1 [Example 98, Cyclobutanecarboxylic acid {3-[5-cyclopropyl-2-(6-iodo-pyridin-3-ylamino)-pyrimidin-4-ylamino]-propyl}-amide] |
| < 100 nM | O=C(NCCCNc1nc(Nc2ccc(Cl)nc2)ncc1C1CC1)C1CCC1 [Example 99, Cyclobutanecarboxylic acid {3-[2-(6-chloro-pyridin-3-ylamino)-5-cyclopropyl-pyrimidin-4-ylamino]-propyl}-amide] |
